Measured values: patent US4963588A, “Use of ubenimex for treating myelodysplastic syndrome” (priority 1989, dated 1990)
Read-outs that look alike come from different tables or passages of the source.

Assays:
[1] = background statement; cited from earlier work
[2] = test system: RAEB or RAEB-T patients (MDS); experiment: Oral administration of the ubenimex capsule to RAEB or RAEB-T (MDS) patients, response observed; format: in vivo; design: key to Response: CR: complete remission; GR: good result
[3] = in vivo
[4] = Acute toxicity in mouse; conditions: in vivo, Mouse (ICR)
[5] = Toxicity, general statement; conditions: acute toxicity table given for reference
[6] = Acute toxicity in beagle; conditions: dog, in vivo, male, oral, * = maximum administration level
[7] = Acute toxicity in rat; conditions: in vivo, Rat (SD)
[8] = test system: tumor; conditions: cf. Japanese Pat. Publication (A2) No. 9487/1985; cited from earlier work
[9] = test system: aminopeptidase B; conditions: cf. U.S.P. No. 4,189,604; cited from earlier work
[10] = patient 1 (RAEB-T), 30mg/day oral
[11] = patient 2 (RAEB), 30mg/day oral
[12] = patient 3 (RAEB), 30mg/day oral
[13] = patient 4 (RAEB), 30mg/day oral
[14] = patient 5 (RAEB), 30mg/day oral
[15] = patient 6 (RAEB), 30mg/day oral

With `CC(C)C[C@H](NC(=O)[C@@H](O)[C@H](N)Cc1ccccc1)C(=O)O` [ubenimex, N-[(2S, 3R)-3-amono-2-hydroxy-4-phenylbutyryl]-(L)-leucine] as the molecule, how does the Toxicity [1] read?
The Toxicity was “low toxicity”.

And the “Effectiveness as a remedy for MDS” value ([2]; 30mg/day oral)?
Its value is “highly effective”.

And the “RAEB cases with complete remission” value ([2]; among six effective cases)?
The value was “three”.

And the “RAEB cases with good responses” value ([2]; among six effective cases)?
Its value is “two”.

What about the “RAEB-T cases with complete remission” value ([2]; among six effective cases) of the same molecule?
Its value is “one”.

What about the Effect on cytopenia ([2]; anemia, thrombocytopenia and neutropenia) of the same molecule?
Its Effect on cytopenia is “improve cytopenia”.

And the “Amount of transfusion to the patients” value ([2]; human, in vivo)?
The value was “reduced or sometimes become unnecessary”.

What about the “Effect on excess blast” value ([2]; human, in vivo) of the same molecule?
Its value is “reduce excess blast”.

And the Effect on myelodysplasia ([2]; human, in vivo)?
The Effect on myelodysplasia was “improve myelodysplasia”.

And the “Patients with good results” value ([2]; of seven RAEB or RAEB-T patients, 30mg/day oral)?
Its value is “six”.

What about the Days till response [2, 10] of the same molecule?
The Days till response was 34 days.

What about the Response [2, 10] of the same molecule?
Its Response is “CR”.

And the “Peripheral blood Granulocytes No.” value ([2]; patient 1 (RAEB-T), 30mg/day oral, after treatment (BT 1.11))?
Its value is 2.94e+09 L⁻¹.

And the “Peripheral blood Hemoglobin” value ([2]; patient 1 (RAEB-T), 30mg/day oral, after treatment (BT 10.5))?
Its value is 13.6 g/dL.

What about the “Bone marrow Blast” value ([2]; patient 1 (RAEB-T), 30mg/day oral, after treatment (BT 22.8)) of the same molecule?
The value was 3.2%.

What about the “Peripheral blood Platelets” value ([2]; patient 1 (RAEB-T), 30mg/day oral, after treatment (BT 350)) of the same molecule?
Its value is 3.72e+11 L⁻¹.

And the Duration of response ([2]; patient 1 (RAEB-T), 30mg/day oral, observation continued)?
The Duration of response was 8 week.

What about the Days till response [2, 11] of the same molecule?
The Days till response was 28 days.

What about the Response [2, 11] of the same molecule?
Its Response is “CR”.

And the “Peripheral blood Granulocytes No.” value ([2]; patient 2 (RAEB), 30mg/day oral, after treatment (BT 0.62))?
The value was 2.44e+09 L⁻¹.

What about the “Peripheral blood Hemoglobin” value ([2]; patient 2 (RAEB), 30mg/day oral, after treatment (BT 7.9)) of the same molecule?
Its value is 14.4 g/dL.

And the “Bone marrow Blast” value ([2]; patient 2 (RAEB), 30mg/day oral, after treatment (BT 13.2))?
The value was 5.2%.

And the “Peripheral blood Platelets” value ([2]; patient 2 (RAEB), 30mg/day oral, after treatment (BT 81))?
The value was 2.09e+11 L⁻¹.

What about the Duration of response ([2]; patient 2 (RAEB), 30mg/day oral, ubenimex administration suspended) of the same molecule?
Its Duration of response is 11 week.

And the Days till response [2, 12]?
Its Days till response is 97 days.

What about the Response [2, 12] of the same molecule?
The Response was “CR”.

What about the “Peripheral blood Granulocytes No.” value ([2]; patient 3 (RAEB), 30mg/day oral, after treatment (BT 0.99)) of the same molecule?
Its value is 1.75e+09 L⁻¹.

And the “Bone marrow Blast” value ([2]; patient 3 (RAEB), 30mg/day oral, after treatment (BT 5.2))?
The value was 0.4%.

What about the “Peripheral blood Hemoglobin” value ([2]; patient 3 (RAEB), 30mg/day oral, after treatment (BT 6.8)) of the same molecule?
The value was 12.3 g/dL.

What about the “Peripheral blood Platelets” value ([2]; patient 3 (RAEB), 30mg/day oral, after treatment (BT 12)) of the same molecule?
Its value is 9.6e+10 L⁻¹.

What about the Duration of response ([2]; patient 3 (RAEB), 30mg/day oral, observation continued) of the same molecule?
Its Duration of response is 21 week.

And the Days till response [2, 13]?
Its Days till response is 175 days.

And the Response [2, 13]?
The Response was “CR”.

What about the “Peripheral blood Granulocytes No.” value ([2]; patient 4 (RAEB), 30mg/day oral, after treatment (BT 2.92)) of the same molecule?
Its value is 2.35e+09 L⁻¹.

What about the “Bone marrow Blast” value ([2]; patient 4 (RAEB), 30mg/day oral, after treatment (BT 6.0)) of the same molecule?
Its value is 2.0%.

And the “Peripheral blood Hemoglobin” value ([2]; patient 4 (RAEB), 30mg/day oral, after treatment (BT 7.6))?
Its value is 11.0 g/dL.

And the “Peripheral blood Platelets” value ([2]; patient 4 (RAEB), 30mg/day oral, after treatment (BT 30))?
The value was 8.2e+10 L⁻¹.

And the Duration of response ([2]; patient 4 (RAEB), 30mg/day oral, observation continued)?
Its Duration of response is 28 week.

And the Days till response [2, 14]?
Its Days till response is 134 days.

What about the Response [2, 14] of the same molecule?
The Response was “GR”.

What about the “Peripheral blood Granulocytes No.” value ([2]; patient 5 (RAEB), 30mg/day oral, after treatment (BT 1.22)) of the same molecule?
Its value is 2.44e+09 L⁻¹.

And the “Peripheral blood Hemoglobin” value ([2]; patient 5 (RAEB), 30mg/day oral, after treatment (BT 8.5))?
Its value is 8.7 g/dL.

And the “Peripheral blood Platelets” value ([2]; patient 5 (RAEB), 30mg/day oral, after treatment (BT 21))?
The value was 1.76e+11 L⁻¹.

And the Duration of response ([2]; patient 5 (RAEB), 30mg/day oral, observation continued)?
The Duration of response was 32 week.

And the Days till response [2, 15]?
The Days till response was 67 days.

What about the Response [2, 15] of the same molecule?
The Response was “GR”.

What about the “Peripheral blood Granulocytes No.” value ([2]; patient 6 (RAEB), 30mg/day oral, after treatment (BT 1.45)) of the same molecule?
Its value is 2.02e+09 L⁻¹.

What about the “Peripheral blood Hemoglobin” value ([2]; patient 6 (RAEB), 30mg/day oral, after treatment (BT 10.9)) of the same molecule?
Its value is 12.2 g/dL.

What about the “Peripheral blood Platelets” value ([2]; patient 6 (RAEB), 30mg/day oral, after treatment (BT 42)) of the same molecule?
Its value is 1.86e+11 L⁻¹.

And the Duration of response ([2]; patient 6 (RAEB), 30mg/day oral, observation continued)?
Its Duration of response is 20 week.

What about the “Accumulated toxicity upon repeated administration” value [3] of the same molecule?
The value was “low accumulated toxicity”.

What about the LD50 ([4]; ip, female, intraperitoneal) of the same molecule?
The LD50 was 190 mg/kg.

What about the LD50 ([4]; ip, male, intraperitoneal) of the same molecule?
Its LD50 is 190 mg/kg.

And the LD50 ([4]; po, female, * = maximum administration level)?
Its LD50 is > 4000 mg/kg.

What about the LD50 ([4]; po, male, * = maximum administration level) of the same molecule?
Its LD50 is > 4000 mg/kg.

And the LD50 ([4]; sc, female, subcutaneous)?
Its LD50 is 1900 mg/kg.

What about the LD50 ([4]; sc, male, subcutaneous) of the same molecule?
The LD50 was 1300 mg/kg.

And the Toxicity [5]?
The Toxicity was “low toxicity”.

What about the LD50 [6] of the same molecule?
The LD50 was > 1200 mg/kg.

What about the LD50 ([7]; ip, first line, sex female, intraperitoneal) of the same molecule?
Its LD50 is 900 mg/kg.

And the LD50 ([7]; ip, second line, female, intraperitoneal)?
The LD50 was 780 mg/kg.

What about the LD50 ([7]; po, first line, sex female, * = maximum administration level) of the same molecule?
The LD50 was > 2000 mg/kg.

And the LD50 ([7]; po, second line, female, * = maximum administration level)?
Its LD50 is > 2000 mg/kg.

What about the LD50 ([7]; sc, first line, sex female, subcutaneous) of the same molecule?
Its LD50 is 1900 mg/kg.

And the LD50 ([7]; sc, second line, female, subcutaneous)?
Its LD50 is 2100 mg/kg.

What about the Antitumor activities [8] of the same molecule?
Its Antitumor activities is “has a antitumor activities”.

What about the “Inhibition of aminopeptidase B” value [9] of the same molecule?
Its value is “inhibits aminopeptidase B”.
